From patent US4731363A, “Thromboxane synthase inhibitors as insulin lowering agents and antiobesity agents” (priority 1986, dated 1988)
Several values for one entry are separate records, joined by “and”; a condition that tells them apart may be missing. Equal values may be shown once. Where a name gives a salt, the structure may show the parent alone. Read-outs that look alike come from different tables or passages of the source.

Legend:
[1] = biological target: T1, thromboxane synthase (Human Platelet Microsomes) (Homo sapiens, UniProt P24557); experiment: Thromboxane synthase inhibition, human platelet microsomes; assay type: biochemical
T1 construct: Platelets were obtained from 320 ml of whole blood and resuspended in 5.0 ml of Krebs-Hensleit buffer; from tissue; host or cells: human platelets (microsomes, 110,000 g pellet)
T1 sequence (P24557 1-533): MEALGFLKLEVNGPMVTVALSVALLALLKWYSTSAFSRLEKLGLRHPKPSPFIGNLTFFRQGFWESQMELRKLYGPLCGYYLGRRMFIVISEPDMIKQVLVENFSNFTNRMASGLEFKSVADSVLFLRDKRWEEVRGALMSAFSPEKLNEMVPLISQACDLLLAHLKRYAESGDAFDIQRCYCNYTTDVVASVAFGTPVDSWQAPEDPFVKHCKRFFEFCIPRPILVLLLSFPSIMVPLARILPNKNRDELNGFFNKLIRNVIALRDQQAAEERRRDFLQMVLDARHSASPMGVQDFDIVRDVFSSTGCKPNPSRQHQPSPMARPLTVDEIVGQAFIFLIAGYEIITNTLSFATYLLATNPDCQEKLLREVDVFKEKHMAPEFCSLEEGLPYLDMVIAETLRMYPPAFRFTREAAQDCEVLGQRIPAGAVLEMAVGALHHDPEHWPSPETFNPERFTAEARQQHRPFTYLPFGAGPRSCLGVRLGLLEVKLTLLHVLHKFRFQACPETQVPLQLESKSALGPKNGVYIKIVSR
Method: (§1) In said assay procedure, microsomes from guinea pig lung or human platelets are added to an endoperoxide intermediate in prostaglandin biosynthesis and the inhibitor in phosphate buffer solution followed by incubation, extraction and determination of the extent of thromboxane synthase inhibition by TLC with radiochromatographic profile analysis.
Determination of Inhibition of Thromboxane Synthase Activity Isolation of Human Platelet Microsomes
Platelets were obtained from 320 ml of whole blood and resuspended in 5.0 ml of Krebs-Hensleit buffer (CA^+2 free). After three consecutive freeze-thawing cycles, homogenization and centrifugation at 12,000 g for 45 min., the 12,000 supernatant was recentrifuged at 110,000 g for 60 min. The resultant pellet was resuspended in phosphate buffer (0.5 ml, 0.1M, pH 7.5) and stored at -70° until use.
(§2) Low specific activity PGH2 (3.3 μCi/μmole) was obtained from Dr. W. E. M. Lands of the University of Michigan. PGH2 of higher specific activity (16.0 μCi/μmole) was purchased from Ran Biochemicals, Tel-Aviv, Israel.
(§3) The inhibitors tested were prepared as solutions (1-10 mg/ml) in 95% ethanol.
(§4) Assay for Thromboxane Synthase
(§5) To a 12×75 mm tube containing [1-^14 C] PGH2 (2 μg, 0.01 μCi or 0.05 μCi) and inhibitor (1 mM final assay concentration, in 10 μl of ethanol) in 225 μl of phosphate buffer (0.1M, pH 7.5), was added to an aliquot of guinea pig lung microsomes (25 μl, containing 400 μg protein) or an aliquot of human platelet microsomes (25 μl, containing .congruent.[…] protein). The solution was incubated in a 22° water bath for 2 min.; ether (1 ml) and citric acid (25 μMoles) were added, and the tube plunged into an acetone-dry ice bath. The ether extract was transferred to a 1.0 ml Reacti-vial, and the volume reduced under nitrogen to .congruent.50 μl.
(§6) The extract was applied to an I.T.L.C., type SG, glass fiber sheet (Gelman Instrument Co., Ann Arbor, Mich.) and developed in isooctane; methyl ethyl ketone: acetic acid (100:19:1 or 100:9:1) (19). The sheets were air dried and scanned using a Berthold LB 2760 Radiochromatographic Scanner. In certain cases, based on the radiochromatographic profile obtained, the sheets were cut, the appropriate regions placed in scintillation vials, 10 ml of LSC cocktail (Yorktown Research, S. Hackensack, NJ) added, and the relative cpm determined.

[2] = biological target: T2, thromboxane synthase (Guinea Pig Lung Microsomes) (Cavia porcellus, UniProt H0UT36); experiment: biochemical
T2 construct: The lungs were removed, freed of trachea and the majority of blood removed by rinsing the lungs with buffer; from tissue; host or cells: lungs of male guinea pigs (microsomes, 110,000 g pellet)
T2 sequence (H0UT36 entry or part of it): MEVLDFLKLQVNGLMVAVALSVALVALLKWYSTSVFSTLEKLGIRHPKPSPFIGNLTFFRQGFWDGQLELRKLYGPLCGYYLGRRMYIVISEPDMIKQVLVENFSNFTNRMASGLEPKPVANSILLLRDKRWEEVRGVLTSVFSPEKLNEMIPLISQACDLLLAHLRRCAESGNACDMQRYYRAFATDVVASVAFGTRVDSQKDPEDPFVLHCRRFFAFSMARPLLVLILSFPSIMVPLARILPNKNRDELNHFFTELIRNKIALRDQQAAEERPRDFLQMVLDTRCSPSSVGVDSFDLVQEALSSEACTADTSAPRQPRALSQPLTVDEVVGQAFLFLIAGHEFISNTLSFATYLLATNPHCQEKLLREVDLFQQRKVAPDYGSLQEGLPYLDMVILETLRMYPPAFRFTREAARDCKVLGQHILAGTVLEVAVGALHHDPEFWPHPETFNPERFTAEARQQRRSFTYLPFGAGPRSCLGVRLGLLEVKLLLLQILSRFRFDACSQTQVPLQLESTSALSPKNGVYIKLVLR
Method: as §1, with “analysis. […]” for “analysis.”
Isolation of Guinea Pig Lung Microsomes
Four male guinea pigs (.congruent.500 g each) were sacrificed by spinal dislocation. The lungs were removed, freed of trachea and the majority of blood removed by rinsing the lungs with buffer (0.1M phosphate pH 7.5) via the pulmonary artery. The lung tissue (18.3 g total wet wt.), was then minced, suspended in three volumes of buffer and homogenized using, initially, a Brinkmann polytron homogenizer and, finally, a glass-teflon tissue grinder. The homogenate was centrifuged at 12,000 g for 1 hr. and the resultant supernatant recentrifuged at 110,000 g for 1 hr. The 110,000 g pellet was taken up in 10 ml of buffer, divided into 5×2 ml aliquots and stored at -70° until use.
as §2, §3, §4, §5, §6

[3] = enzyme source H = Human Platelet Microsomes, read-out: IC50
[4] = IC50, enzyme source G = Guinea Pig Lung Microsomes
[5] = enzyme source G = Guinea Pig Lung Microsomes, read-out: IC50
[6] = IC50, enzyme source H = Human Platelet Microsomes

`N[C@@H]1C(=O)N2C(C(=O)O)=C(CSc3ccncn3)CS[C@H]12` [[6R--(6α,7β)]-2-carboxy-8-oxo-3-[(4-pyrimidinylthio)-methyl]5-thia-1-azabicyclo-[4.2.0]oct-2-en-7-aminum hydroxide inner salt] was tested, and the IC50 [1, 3] was > 100 µM and < 1000 µM.

Molecule `O=C1C(CC[S+]([O-])c2ccccc2)C(=O)N(c2ccccc2)N1c1ccccc1` (centres unmarked) [1,2-diphenyl-4-[2-[phenylsulfinyl]ethyl]-3,5-pyrazo-lidinedione, reference compound] has an IC50 [2, 4] of about 1000 µM.

`O=[N+]([O-])c1ccc(-n2ccnc2)c([N+](=O)[O-])c1` [1-[2,4-dinitrophenyl]1H--imidazole] was tested, and the IC50 [2, 4] was > 100 µM and < 1000 µM.

With `O=C1c2ccccc2S(=O)(=O)c2cc(-c3nnn[nH]3)ccc21` [3-(1H-tetrazol-5-yl)-9H-thioxathen-9-one s.s dioxide, reference compound] the IC50 [2, 5] was > 100 µM and < 1000 µM.

With `CCn1ccnc1` [1-ethyl-1H--imidazole] the IC50 [2, 4] was over 1000 µM.

`COc1ccc(-n2ccnc2)cc1` [1-(4-methoxyphenyl)-1H--imidazole] was tested, and the IC50 [1, 3] was 10 to 100 µM.

In the case of `CCOC(=O)C(=O)Cc1ccncn1` [Alpha-oxo-4-pyrimidinepropanoic acid ethyl ester], the IC50 [1, 3] is reported as > 100 µM and < 1000 µM.

With `Cn1ccnc1` [1-methyl-1H--imidazole] the IC50 [2, 5] was over 1000 µM.

Work on `O=C(NN=Cc1c(O)ccc2ccccc12)c1cccnc1` [[(2-hydroxy-1-naphthalenyl)methylene]hydrazide 3-pyridinecarboxylic acid] yielded an IC50 [1, 3] of about 100 µM.

`Cc1ccc2c(-c3ccccc3)nc(=O)n(C(C)C)c2c1` [7-methyl-1-(1-methylethyl)-4-phenyl-2(1H)-quinazolinone, reference compound] was tested, and the IC50 [2, 5] was over 1000 µM.

`COc1ccc2c(c1)c(CC(=O)O)c(C)n2C(=O)c1ccc(Cl)cc1` [1-(4-chlorobenzoyl)-5-methoxy-2-methyl-1H--indole-3-acetic acid, reference compound] was tested, and the IC50 [2, 5] was > 100 µM and < 1000 µM.

In the case of `c1ccc(-c2ccncn2)cc1` [4-phenylpyrimidine], the IC50 [2, 5] is reported as about 100 µM.

In the case of `CC(C)(C(=O)c1cccnc1)c1cccnc1` [2-methyl-1,2-di-3-pyridyl-1-propanone tartrate [1:2], reference compound], the IC50 [1, 3] is reported as > 100 µM and < 1000 µM.

For `O=[N+]([O-])c1ccc(-n2ccnc2)cc1` [1-(4-nitrophenyl)-1H--imidazole], the IC50 [2, 5] was > 100 µM and < 1000 µM.

Molecule `Oc1cccc(-n2ccnc2)c1` [3-(1H--imidazol-1-yl)phenol] has an IC50 [1, 3] of 1 to 10 µM.

`OC[C@H]1O[C@@H](n2ccnc2)[C@H](O)[C@@H](O)[C@@H]1O` [1-(beta-D-glucopyranosyl)-1H--imidazole] gave an IC50 [1, 3] of 10 to 100 µM.

With `c1ccc(Cn2ccnc2)cc1` [1-(phenylmethyl)-1H--imidazole] the IC50 [1, 6] was 10 to 100 µM.

With `Nc1cncc(C(=O)O)c1` [5-amino-3-pyridinecarboxylic acid] the IC50 [2, 4] was over 1000 µM.

`CCOc1ccc(-n2ccnc2)cc1` [1-(4-ethoxyphenyl)-1H--imidazole] showed an IC50 [1, 3] of about 10 µM.

In the case of `COC(=O)C=Cc1c[nH]cn1` [3-(1H--imidazole-4-yl)-2-propenoic acid methyl ester], the IC50 [2, 5] is reported as > 100 µM and < 1000 µM.

With `CC(=O)n1ccnc1` [1-acetyl-1H--imidazole] the IC50 [1, 3] was about 1000 µM.

`Clc1ccccc1C(c1ccccc1)(c1ccccc1)n1ccnc1` [1-[(2-chlorophenyl)diphenylmethyl]-1H--imidazole, reference compound] was tested, and the IC50 [1, 6] was 10 to 100 µM.

Work on `O=[N+]([O-])c1c[nH]cn1` [1H-- 4-nitroimidazole] yielded an IC50 [2, 5] of over 1000 µM.

`CC(C)Oc1ccc2oc3ccc(C(=O)O)cc3c(=O)c2c1` [7-(1-methylethoxy)-9-oxo-9H-xanthene-2-carboxylic acid] gave an IC50 [2, 5] of over 1000 µM and an IC50 [1, 3] of over 1000 µM.

In the case of `CCCCn1ccnc1` [1-butyl-1H--imidazole], the IC50 [1, 3] is reported as about 10 µM.
